Data published in patent publication US8822530B2, “Sulfur derivatives as chemokine receptor modulators” (Allergan, Inc., priority 2010, dated 2014).
pIC50: −log10 of the molar value.

target: T1, CCR2 receptor (Homo sapiens, UniProt P41597); test: Calcium activity assay on FLIPR Tetra in HEK-Gqi5 cells stably expressing CCR2; format: cell-based
T1 construct: expressed in transfected cells
Procedure: HEK-Gqi5 cells stably expressing CCR2 were cultured in DMEM high glucose, 10% FBS, 1% PSA, 400 μg/ml geneticin and 50 μg/ml hygromycin. Appropriate positive control chemokines (MCP-1, MIP1A or RANTES) was used as the positive control agonist for screening compound-induced calcium activity assayed on the FLIPR^Tetra. The drug plates were prepared in 384-well microplates using the EP3 and the MultiPROBE robotic liquid handling systems. Compounds were synthesized and tested for CCR2 activity.

T1 sequence (P41597 whole entry): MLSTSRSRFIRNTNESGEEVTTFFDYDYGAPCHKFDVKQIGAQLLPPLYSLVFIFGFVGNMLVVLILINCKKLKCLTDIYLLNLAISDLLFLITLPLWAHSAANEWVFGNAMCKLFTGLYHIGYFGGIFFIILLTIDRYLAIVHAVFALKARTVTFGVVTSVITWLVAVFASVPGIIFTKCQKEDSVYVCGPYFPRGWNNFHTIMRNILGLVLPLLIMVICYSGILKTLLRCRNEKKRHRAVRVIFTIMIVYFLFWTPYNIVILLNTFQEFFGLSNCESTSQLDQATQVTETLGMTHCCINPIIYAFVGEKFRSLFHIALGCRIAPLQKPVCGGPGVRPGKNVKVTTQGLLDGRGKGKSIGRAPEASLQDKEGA

Row | CCR2 % ANTAGONISM | pIC50 | Structure (SMILES)
1 | 110% | 6.09 | O=C(NCCN1CCCC1)c1cccc(CS(=O)(=O)c2ccc(Cl)cc2NS(=O)(=O)c2ccc(Cl)c(C(F)(F)F)c2)c1
2 | 71% | 6.77 | CN(C)C(=O)c1ccccc1CSc1ccc(Cl)cc1NS(=O)(=O)c1ccc(Cl)c(C(F)(F)F)c1 [2-({[4-chloro-2-({[4-chloro-3-(trifluoromethyl)phenyl]sulfonyl}amino)phenyl]sulfanyl}methyl)-N,N-dimethylbenzamide]
3 | 92% | 6.83 | CCNC(=O)c1ccccc1CSc1ccc(Cl)cc1NS(=O)(=O)c1ccc(Cl)c(C(F)(F)F)c1 [2-({[4-chloro-2-({[4-chloro-3-(trifluoromethyl)phenyl]sulfonyl}amino)phenyl]sulfanyl}methyl)-N-ethylbenzamide]
4 | 88% | 6.78 | NC(=O)c1ccccc1CSc1ccc(Cl)cc1NS(=O)(=O)c1ccc(Cl)c(C(F)(F)F)c1 [2-({[4-chloro-2-({[4-chloro-3-(trifluoromethyl)phenyl]sulfonyl}amino)phenyl]sulfanyl}methyl)benzamide]
5 | 99% | 7.10 | O=C(O)c1ccccc1CSc1ccc(Cl)cc1NS(=O)(=O)c1ccc(Cl)c(C(F)(F)F)c1 [2-({[4-chloro-2-({[4-chloro-3-(trifluoromethyl)phenyl]sulfonyl}amino)phenyl]sulfanyl}methyl)benzoic acid]
6 | 99% | 6.07 | O=C(O)c1ccccc1C[S+]([O-])c1ccc(Cl)cc1NS(=O)(=O)c1ccc(Cl)c(C(F)(F)F)c1 (centres unmarked) [2-({[4-chloro-2-({[4-chloro-3-(trifluoromethyl)phenyl]sulfonyl}amino)phenyl]sulfinyl}methyl)benzoic acid]
7 | 105% |  | O=C(O)c1ccccc1CS(=O)(=O)c1ccc(Cl)cc1NS(=O)(=O)c1ccc(Cl)c(C(F)(F)F)c1 [2-({[4-chloro-2-({[4-chloro-3-(trifluoromethyl)phenyl]sulfonyl}amino)phenyl]sulfonyl}methyl)benzoic acid]
8 | 101% | 8.15 | O=C(O)c1ccccc1CSc1ccc(Cl)cc1NS(=O)(=O)c1cc2ccccc2o1 [2-[({2-[(1-benzofuran-2-ylsulfonyl)amino]-4-chlorophenyl}sulfanyl)methyl]benzoic acid]
9 | 98% | 6.09 | O=C(O)c1ccccc1C[S+]([O-])c1ccc(Cl)cc1NS(=O)(=O)c1cc2ccccc2o1 (centres unmarked) [2-[({2-[(1-benzofuran-2-ylsulfonyl)amino]-4-chlorophenyl}sulfinyl)methyl]benzoic acid]
10 | 96% |  | O=C(O)c1ccccc1CS(=O)(=O)c1ccc(Cl)cc1NS(=O)(=O)c1cc2ccccc2o1 [2-[({2-[(1-benzofuran-2-ylsulfonyl)amino]-4-chlorophenyl}sulfonyl)methyl]benzoic acid]
11 | 99% | 7.96 | O=C(O)c1ccccc1CSc1ccc(F)cc1NS(=O)(=O)c1cc2ccccc2o1 [2-[({2-[(1-benzofuran-2-ylsulfonyl)amino]-4-fluorophenyl}sulfanyl)methyl]benzoic acid]
12 | 92% | 5.73 | O=C(O)c1ccccc1C[S+]([O-])c1ccc(F)cc1NS(=O)(=O)c1cc2ccccc2o1 (centres unmarked) [2-[({2-[(1-benzofuran-2-ylsulfonyl)amino]-4-fluorophenyl}sulfinyl)methyl]benzoic acid]
13 | 89% | 5.61 | O=C(O)c1ccccc1CS(=O)(=O)c1ccc(F)cc1NS(=O)(=O)c1cc2ccccc2o1 [2-[({2-[(1-benzofuran-2-ylsulfonyl)amino]-4-fluorophenyl}sulfonyl)methyl]benzoic acid]
14 | 99% | 7.34 | O=C(O)CCSc1ccc(Cl)cc1NS(=O)(=O)c1cc2ccccc2o1 [3-({2-[(1-benzofuran-2-ylsulfonyl)amino]-4-chlorophenyl}sulfanyl)propanoic acid]
15 | 97% | 5.66 | O=C(NCCN1CCCC1)c1cccc(CSc2ccc(Cl)cc2NS(=O)(=O)c2ccc(Cl)c(C(F)(F)F)c2)c1 [3-({[4-chloro-2-({[4-chloro-3-(trifluoromethyl)phenyl]sulfonyl}amino)phenyl]sulfanyl}methyl)-N-[2-(pyrrolidin-1-yl)ethyl]benzamide]
16 | 102% | 7.25 | O=C(O)c1cccc(CSc2ccc(Cl)cc2NS(=O)(=O)c2ccc(Cl)c(C(F)(F)F)c2)c1 [3-({[4-chloro-2-({[4-chloro-3-(trifluoromethyl)phenyl]sulfonyl}amino)phenyl]sulfanyl}methyl)benzoic acid]

Row | CCR2 % ANTAGONISM | pIC50 | Structure (SMILES)
17 | 105% | 6.04 | O=C(NCCN1CCCC1)c1cccc(C[S+]([O-])c2ccc(Cl)cc2NS(=O)(=O)c2ccc(Cl)c(C(F)(F)F)c2)c1 (centres unmarked) [3-({[4-chloro-2-({[4-chloro-3-(trifluoromethyl)phenyl]sulfonyl}amino)phenyl]sulfinyl}methyl)-N-[2-(pyrrolidin-1-yl)ethyl]benzamide]
18 | 89% |  | O=C(O)c1cccc(C[S+]([O-])c2ccc(Cl)cc2NS(=O)(=O)c2ccc(Cl)c(C(F)(F)F)c2)c1 (centres unmarked) [3-({[4-chloro-2-({[4-chloro-3-(trifluoromethyl)phenyl]sulfonyl}amino)phenyl]sulfinyl}methyl)benzoic acid]
19 | 51% |  | O=C(NCC[N+]1([O-])CCCC1)c1cccc(CS(=O)(=O)c2ccc(Cl)cc2NS(=O)(=O)c2ccc(Cl)c(C(F)(F)F)c2)c1 [3-({[4-chloro-2-({[4-chloro-3-(trifluoromethyl)phenyl]sulfonyl}amino)phenyl]sulfonyl}methyl)-N-[2-(1-oxidopyrrolidin-1-yl)ethyl]benzamide]
20 | 101% | 5.80 | O=C(O)c1cccc(CS(=O)(=O)c2ccc(Cl)cc2NS(=O)(=O)c2ccc(Cl)c(C(F)(F)F)c2)c1 [3-({[4-chloro-2-({[4-chloro-3-(trifluoromethyl)phenyl]sulfonyl}amino)phenyl]sulfonyl}methyl)benzoic acid]
21 | 49% |  | CCN(C)C(=O)CCSc1ccc(Cl)cc1NS(=O)(=O)c1ccc(Cl)cc1F [3-[(4-chloro-2-{[(4-chloro-2-fluorophenyl)sulfonyl]amino}phenyl)sulfanyl]-N-ethyl-N-methylpropanamide]
22 | 102% | 6.89 | O=C(O)CCSc1ccc(Cl)cc1NS(=O)(=O)c1ccc(Cl)cc1F [3-[(4-chloro-2-{[(4-chloro-2-fluorophenyl)sulfonyl]amino}phenyl)sulfanyl]propanoic acid]
23 | 89% | 5.12 | CCN(C)C(=O)CC[S+]([O-])c1ccc(Cl)cc1NS(=O)(=O)c1ccc(Cl)cc1F (centres unmarked) [3-[(4-chloro-2-{[(4-chloro-2-fluorophenyl)sulfonyl]amino}phenyl)sulfinyl]-N-ethyl-N-methylpropanamide]
24 | 83% |  | O=C(O)CC[S+]([O-])c1ccc(Cl)cc1NS(=O)(=O)c1ccc(Cl)cc1F (centres unmarked) [3-[(4-chloro-2-{[(4-chloro-2-fluorophenyl)sulfonyl]amino}phenyl)sulfinyl]propanoic acid]
25 | 87% | 5.65 | CCN(C)C(=O)CCS(=O)(=O)c1ccc(Cl)cc1NS(=O)(=O)c1ccc(Cl)cc1F [3-[(4-chloro-2-{[(4-chloro-2-fluorophenyl)sulfonyl]amino}phenyl)sulfonyl]-N-ethyl-N-methylpropanamide]
26 | 90% |  | O=C(O)CCS(=O)(=O)c1ccc(Cl)cc1NS(=O)(=O)c1ccc(Cl)cc1F [3-[(4-chloro-2-{[(4-chloro-2-fluorophenyl)sulfonyl]amino}phenyl)sulfonyl]propanoic acid]
27 | 56% | 5.77 | CCN(CC)C(=O)CC[S+]([O-])c1ccc(Cl)cc1NS(=O)(=O)c1ccc(Cl)c(C(F)(F)F)c1 (centres unmarked) [3-{[4-chloro-2-({[4-chloro-3-(trifluoromethyl)phenyl]sulfonyl}amino)phenyl]sulfinyl}-N,N-diethylpropanamide]
28 | 61% | 5.73 | CCN(CC)C(=O)CCS(=O)(=O)c1ccc(Cl)cc1NS(=O)(=O)c1ccc(Cl)c(C(F)(F)F)c1 [3-{[4-chloro-2-({[4-chloro-3-(trifluoromethyl)phenyl]sulfonyl}amino)phenyl]sulfonyl}-N,N-diethylpropanamide]
29 | 31% |  | O=C(NCC[N+]1([O-])CCCC1)c1ccc(CSc2ccc(Cl)cc2NS(=O)(=O)c2ccc(Cl)c(C(F)(F)F)c2)cc1 [4-({[4-chloro-2-({[4-chloro-3-(trifluoromethyl)phenyl]sulfonyl}amino)phenyl]sulfanyl}methyl)-N-[2-(1-oxidopyrrolidin-1-yl)ethyl]benzamide]
30 | 75% | 5.64 | O=C(NCCN1CCCC1)c1ccc(CSc2ccc(Cl)cc2NS(=O)(=O)c2ccc(Cl)c(C(F)(F)F)c2)cc1 [4-({[4-chloro-2-({[4-chloro-3-(trifluoromethyl)phenyl]sulfonyl}amino)phenyl]sulfanyl}methyl)-N-[2-(pyrrolidin-1-yl)ethyl]benzamide]
31 | 102% | 6.59 | O=C(O)c1ccc(CSc2ccc(Cl)cc2NS(=O)(=O)c2ccc(Cl)c(C(F)(F)F)c2)cc1 [4-({[4-chloro-2-({[4-chloro-3-(trifluoromethyl)phenyl]sulfonyl}amino)phenyl]sulfanyl}methyl)benzoic acid]
32 | 85% | 5.85 | O=C(NCCN1CCCC1)c1ccc(C[S+]([O-])c2ccc(Cl)cc2NS(=O)(=O)c2ccc(Cl)c(C(F)(F)F)c2)cc1 (centres unmarked) [4-({[4-chloro-2-({[4-chloro-3-(trifluoromethyl)phenyl]sulfonyl}amino)phenyl]sulfinyl}methyl)-N-[2-(pyrrolidin-1-yl)ethyl]benzamide]
